# Test: Inhibitory activity against IMP-1 metallo-beta-lactamase (MBL)
row,Structure (SMILES),IC50
1,O=C(S[C@H](Cc1ccc(-c2ccccc2)cc1)C(=O)O)c1ccccc1,0.00041 µM
2,CC(=O)S[C@@H](Cc1ccccc1)C(=O)O,740 µM
3,CC(=O)N[C@H](C)C(=O)S[C@H](Cc1ccccc1)C(=O)O,63 µM
4,CCC(=O)N[C@H](C)C(=O)S[C@H](Cc1ccc(-c2ccccc2)cc1)C(=O)O,9.5 µM
5,C[C@@H](NC(=O)Cc1ccc(N(C)C)cc1)C(=O)S[C@H](Cc1ccc(-c2ccccc2)cc1)C(=O)O,55 µM
6,C[C@@H](NC(=O)CNC(=O)c1ccccc1)C(=O)S[C@H](Cc1ccc(-c2ccccc2)cc1)C(=O)O,50 µM
7,C[C@@H](NC(=O)c1cccc(N(C)C)c1)C(=O)S[C@H](Cc1ccc(-c2ccccc2)cc1)C(=O)O,15 µM
8,CCCCC(=O)N[C@H](C)C(=O)S[C@H](Cc1ccc(-c2ccccc2)cc1)C(=O)O,4.8 µM
9,CC(=O)S[C@H](Cc1ccc(-c2ccccc2)cc1)C(=O)O,0.084 µM
10,C[C@@H](NC(=O)CCC(=O)O)C(=O)S[C@H](Cc1ccc(-c2ccccc2)cc1)C(=O)O,4.7 µM
11,CC(=O)S[C@H](Cc1ccc2oc3ccccc3c2c1)C(=O)O,0.045 µM
12,C[C@@H](NC(=O)Cc1ccc(O)cc1)C(=O)S[C@H](Cc1ccc(-c2ccccc2)cc1)C(=O)O,3.1 µM
13,C[C@@H](NC(=O)c1ccccc1)C(=O)S[C@H](Cc1ccc2oc3ccccc3c2c1)C(=O)O,1.5 µM
14,COc1cc(OC)c(C(=O)N[C@H](C)C(=O)S[C@H](Cc2ccc(-c3ccccc3)cc2)C(=O)O)c(OC)c1,46 µM
15,O=C(O)[C@@H](S)Cc1ccccc1,3.7 µM
16,C[C@@H](NC(=O)Cc1cccc2ccccc12)C(=O)S[C@H](Cc1ccc(-c2ccccc2)cc1)C(=O)O,12 µM
17,C[C@@H](NC(=O)Cc1ccccc1)C(=O)S[C@H](Cc1ccc(-c2ccccc2)cc1)C(=O)O,5.8 µM
18,C[C@@H](NC(=O)c1ccccc1)C(=O)S[C@@H](Cc1ccc2oc3ccccc3c2c1)C(=O)O,430 µM

row,Structure (SMILES),IC50
1,C[C@@H](NC(=O)c1ccccc1)C(=O)S[C@H](Cc1ccccc1)C(=O)O,20 µM
2,CCCC(=O)N[C@H](C)C(=O)S[C@H](Cc1ccc(-c2ccccc2)cc1)C(=O)O,9.3 µM
3,C[C@@H](NC(=O)Cc1ccccc1OCc1ccccc1)C(=O)S[C@H](Cc1ccc(-c2ccccc2)cc1)C(=O)O,24 µM
4,C=CCOC(=O)N[C@H](C)C(=O)S[C@H](Cc1ccccc1)C(=O)O,64 µM
5,CC(=O)S[C@@H](Cc1ccc2oc3ccccc3c2c1)C(=O)O,160 µM
6,C[C@@H](NC(=O)/C=C/c1ccccc1)C(=O)S[C@H](Cc1ccc(-c2ccccc2)cc1)C(=O)O,11 µM
7,C[C@@H](NC(=O)CCC(=O)c1ccccc1)C(=O)S[C@H](Cc1ccc(-c2ccccc2)cc1)C(=O)O,0.25 µM
8,COc1ccc(CC(=O)N[C@H](C)C(=O)S[C@H](Cc2ccc(-c3ccccc3)cc2)C(=O)O)cc1,12 µM
9,CC(=O)S[C@H](Cc1ccccc1)C(=O)O,12 µM
10,O=C(O)[C@H](S)Cc1ccccc1,0.086 µM
11,O=C(O)[C@H](S)Cc1ccc2oc3ccccc3c2c1,0.023 µM
12,C[C@@H](NC(=O)CSCC(=O)O)C(=O)S[C@H](Cc1ccc(-c2ccccc2)cc1)C(=O)O,13 µM
13,O=C(O)[C@@H](S)Cc1ccc2oc3ccccc3c2c1,0.25 µM
14,O=C(S[C@@H](Cc1ccc(-c2ccccc2)cc1)C(=O)O)c1ccccc1,120 µM
15,O=C(S[C@@H](Cc1ccccc1)C(=O)O)c1ccccc1,2.5 µM
16,O=C(O)[C@@H](S)Cc1ccc(-c2ccccc2)cc1,1.2 µM
17,COc1ccc(C(=O)N[C@H](C)C(=O)S[C@H](Cc2ccc(-c3ccccc3)cc2)C(=O)O)cc1,29 µM

# The remaining compounds from weak to strong by IC50, led by results:
row,IC50,Structure (SMILES)
1,240 µM,C[C@@H](NC(=O)c1ccccc1)C(=O)SCC(=O)O
2,91 µM,C[C@@H](NC(=O)CCCC(=O)O)C(=O)S[C@H](Cc1ccc(-c2ccccc2)cc1)C(=O)O
3,74 µM,CC(=O)S[C@@H](Cc1ccc(-c2ccccc2)cc1)C(=O)O
4,49 µM,O=C(S[C@@H](Cc1ccc2oc3ccccc3c2c1)C(=O)O)c1ccccc1
5,38 µM,COc1cccc(C(=O)N[C@H](C)C(=O)S[C@H](Cc2ccc(-c3ccccc3)cc2)C(=O)O)c1
6,33 µM,C/C=C/C(=O)N[C@H](C)C(=O)S[C@H](Cc1ccc(-c2ccccc2)cc1)C(=O)O
7,32 µM,C[C@@H](NC(=O)Cc1cccnc1)C(=O)S[C@H](Cc1ccc(-c2ccccc2)cc1)C(=O)O
8,18 µM,C[C@@H](NC(=O)c1ccc2ccccc2c1)C(=O)S[C@H](Cc1ccc(-c2ccccc2)cc1)C(=O)O
9,18 µM,CC(=O)N[C@H](C)C(=O)S[C@H](Cc1ccc(-c2ccccc2)cc1)C(=O)O
10,15 µM,C[C@@H](NC(=O)CCc1ccccc1)C(=O)S[C@H](Cc1ccc(-c2ccccc2)cc1)C(=O)O
11,13 µM,CCCCCC(=O)N[C@H](C)C(=O)S[C@H](Cc1ccc(-c2ccccc2)cc1)C(=O)O
12,9.7 µM,CC(C)C(=O)N[C@H](C)C(=O)S[C@H](Cc1ccc(-c2ccccc2)cc1)C(=O)O
13,5.3 µM,CC(C)CC(=O)N[C@H](C)C(=O)S[C@H](Cc1ccc(-c2ccccc2)cc1)C(=O)O
14,4.4 µM,C=CCOC(=O)N[C@H](C)C(=O)S[C@H](Cc1ccc(-c2ccccc2)cc1)C(=O)O
15,3.6 µM,C[C@@H](NC(=O)c1ccccc1)C(=O)S[C@H](Cc1ccc(-c2ccccc2)cc1)C(=O)O
16,2.9 µM,C=CCOC(=O)N[C@H](C)C(=O)S[C@H](Cc1ccc2oc3ccccc3c2c1)C(=O)O
17,2 µM,CC(=O)N[C@H](C)C(=O)S[C@H](Cc1ccc2oc3ccccc3c2c1)C(=O)O
18,1 µM,C[C@@H](NC(=O)COc1ccccc1)C(=O)S[C@H](Cc1ccc(-c2ccccc2)cc1)C(=O)O
19,0.064 µM,O=C(S[C@H](Cc1ccccc1)C(=O)O)c1ccccc1
20,0.057 µM,O=C(O)[C@H](S)Cc1ccc(-c2ccccc2)cc1
21,0.0013 µM,O=C(S[C@H](Cc1ccc2oc3ccccc3c2c1)C(=O)O)c1ccccc1
